According to ChEMBL document CHEMBL5649166, “RIP3 induces apoptosis independent of pronecrotic kinase activity” (Mol Cell, 2014):
Activity calls are given as the source filed them. The calls are words filed in the database; no cut-off is given here.

Legend:
[1] = system: L929; experiment: Inhibition of TLR-3 induced necroptosis in mouse L929 cells assessed as increase in cell viability at 30 uM incubated for 18 hrs in presence of zVAD and poly(I:C) by Cell Titer-Glo luminescent cell viability assay; assay type: functional, cell-based
[2] = system: SVEC4-10; experiment: Inhibition of DAI-induced necroptosis in MCMV M45mutRHIM infected mouse SVEC4-10 cells assessed as increase in cell viability incubated for 18 hrs by Cell Titer-Glo luminescent cell viability assay; assay type: functional, cell-based
[3] = system: L929; experiment: Inhibition of TNF-alpha induced necroptosis in mouse L929 cells assessed as increase in cell viability at 30 uM incubated for 18 hrs in presence of zVAD by Cell Titer-Glo luminescent cell viability assay; assay type: functional, cell-based
[4] = system: SVEC4-10; experiment: Inhibition of TNF-induced necroptosis in mouse SVEC4-10 cells assessed as increase in cell viability incubated for 18 hrs in presence of zVAD by Cell Titer-Glo luminescent cell viability assay; assay type: functional, cell-based
[5] = system: L929; experiment: Inhibition of TNF-alpha induced necroptosis in mouse L929 cells assessed as increase in cell viability at 10 uM incubated for 18 hrs in presence of zVAD by Cell Titer-Glo luminescent cell viability assay; assay type: functional, cell-based
[6] = system: L929; experiment: Inhibition of TLR-3 induced necroptosis in mouse L929 cells assessed as increase in cell viability at 10 uM incubated for 18 hrs in presence of zVAD and poly(I:C) by Cell Titer-Glo luminescent cell viability assay; assay type: functional, cell-based
[7] = system: 3T3SA; experiment: Induction of apoptosis in mouse 3T3SA cells assessed as cell death by measuring percent of PI positive cells incubated for 3 hrs in presence of TNF by PI staining based flow cytometric analysis (reference value: 10.7%); assay type: toxicity
[8] = system: 3T3SA; experiment: Induction of apoptosis in mouse 3T3SA cells assessed as cell death by measuring percent of PI positive cells incubated for 8 hrs in presence of TNF by PI staining based flow cytometric analysis (reference value: 11.4%); assay type: toxicity

CN1C(=O)C(Cc2c[nH]c3ccccc23)NC1=S (stereo not given)
inhibition [1]: inactive
inhibition [2]: inactive
inhibition [3]: Active
inhibition [4]: Active

CC(C)(C)C(=O)N1N=CC[C@H]1c1ccccc1
inhibition [5]: Active
inhibition [6]: inactive
inhibition [2]: inactive
inhibition [4]: Active

C[C@@H]1CC([C@H](O)CC2CC(=O)NC(=O)C2)C(=O)[C@@H](C)C1 (stereo not given in full)
Activity [7]: 22%
Activity [8]: 60%
